From patent US9884836B2, “2-substituted-5-hydroxy-4H-chromen-4-ones as novel ligands for the serotonin receptor 2B (5-HT2B)” (VIRGINIA COMMONWEALTH UNIVERSITY, priority 2014, dated 2018) come the findings set out here.

The structures appear in SMILES notation. Read-outs that look alike come from different tables or passages of the source.

The target in assay [1] is T1, 5-HT2B receptor (Homo sapiens, UniProt P41595). Briefly: Binding affinity (pKi) by competitive inhibition of [3H]LSD at 5-HT2B. Particulars: for Ki: pKi at 5-HT2B.
T1 sequence (P41595 whole entry): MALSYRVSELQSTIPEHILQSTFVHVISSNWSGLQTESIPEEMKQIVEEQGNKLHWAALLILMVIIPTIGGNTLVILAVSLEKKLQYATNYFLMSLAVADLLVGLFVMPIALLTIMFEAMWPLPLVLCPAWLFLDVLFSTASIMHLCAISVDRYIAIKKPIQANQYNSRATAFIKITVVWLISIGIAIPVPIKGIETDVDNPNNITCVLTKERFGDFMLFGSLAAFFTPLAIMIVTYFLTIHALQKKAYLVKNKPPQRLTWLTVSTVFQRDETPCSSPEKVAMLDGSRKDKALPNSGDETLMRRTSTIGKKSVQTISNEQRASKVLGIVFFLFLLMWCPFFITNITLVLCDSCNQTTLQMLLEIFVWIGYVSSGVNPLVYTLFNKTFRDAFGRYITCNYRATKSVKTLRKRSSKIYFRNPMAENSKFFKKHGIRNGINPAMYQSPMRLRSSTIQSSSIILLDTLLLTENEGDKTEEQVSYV
The target in assay [2] is T1, 5-HT2B receptor. Briefly: Primary screening: inhibition of radioligand binding at 5-HT2B (NIMH PDSP).
Another assay deals with 5-HT2A (Homo sapiens, UniProt P28223). Description: Primary screening: inhibition of radioligand binding at 5-HT2A (NIMH PDSP).
Chain of 5-HT2A (P28223 whole entry, species assumed): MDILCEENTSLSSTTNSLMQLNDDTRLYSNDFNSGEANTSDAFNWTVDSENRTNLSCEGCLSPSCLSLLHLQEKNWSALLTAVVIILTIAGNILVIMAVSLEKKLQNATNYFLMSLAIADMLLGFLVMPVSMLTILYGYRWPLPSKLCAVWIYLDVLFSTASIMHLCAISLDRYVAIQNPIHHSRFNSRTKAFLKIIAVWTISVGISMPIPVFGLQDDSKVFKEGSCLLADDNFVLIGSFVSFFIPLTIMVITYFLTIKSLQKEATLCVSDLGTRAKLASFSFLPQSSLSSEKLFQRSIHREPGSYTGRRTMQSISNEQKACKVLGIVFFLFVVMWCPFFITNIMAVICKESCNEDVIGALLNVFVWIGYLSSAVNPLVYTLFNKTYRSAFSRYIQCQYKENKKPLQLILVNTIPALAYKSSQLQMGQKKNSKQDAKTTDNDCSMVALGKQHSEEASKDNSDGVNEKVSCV
The target in assay [3] is T2, 5-HT2C (Homo sapiens, UniProt P28335).
T2 sequence (P28335 33-458): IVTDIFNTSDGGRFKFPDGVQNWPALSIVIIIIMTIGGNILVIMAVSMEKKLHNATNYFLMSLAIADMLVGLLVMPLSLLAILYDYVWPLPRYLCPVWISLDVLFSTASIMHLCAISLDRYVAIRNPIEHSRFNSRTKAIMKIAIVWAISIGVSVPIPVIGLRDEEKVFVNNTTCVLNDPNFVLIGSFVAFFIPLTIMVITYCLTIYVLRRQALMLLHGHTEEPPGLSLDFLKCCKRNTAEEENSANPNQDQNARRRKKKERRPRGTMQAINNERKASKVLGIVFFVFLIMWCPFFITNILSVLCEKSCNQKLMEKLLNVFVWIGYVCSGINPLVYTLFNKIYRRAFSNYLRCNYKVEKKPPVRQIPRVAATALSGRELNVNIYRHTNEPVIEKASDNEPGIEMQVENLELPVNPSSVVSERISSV
Briefly: Primary screening: inhibition of radioligand binding at 5-HT2C (NIMH PDSP).

In assay [4] the target is T1, 5-HT2B receptor. Briefly: Calcium mobilization assay in Flp-In HEK cells (agonist/antagonist functional activity). The note with it: compound at 10 μM. Background: Calcium flux is commonly read through the fluorescence of an indicator in the cells.
Assay [5] has as its target T2, 5-HT2C. Briefly: Binding affinity (pKi) at 5-HT2C.
Setting [6] is: read-out: % Inhibition of radioligand binding 5-HT2B.
The mark [7] stands for this setting: read-out: inhibitory activity at 5-HT2B.
The mark [8] stands for this setting: read-out: % Inhibition of radioligand binding 5-HT2A.
Setting [9] is: read-out: % Inhibition of radioligand binding 5-HT2C.

Consider `O=c1cc(COc2ccccc2)oc2cccc(O)c12` [Compound 22a, 5-hydroxy-2-(phenoxymethyl)-4H-chromen-4-one], for which the Ki on 5-HT2B receptor [1] and on 5-HT2B receptor [1] (Table 7) was above 10000 nM in each case. The inhibition at 10 µM was found to be 50% at 5-HT2B receptor [2] (read-out: % Inhibition 5-HT2B); 50% at 5-HT2B receptor [2] (setting [6]); 50% on 5-HT2B receptor [2] (setting [7]); 0.2% at 5-HT2A (read-out: % Inhibition 5-HT2A); 0.2% on 5-HT2A (setting [8]); 7.8% at 5-HT2C [3] (read-out: % Inhibition 5-HT2C). The inhibition at 10 µM at 5-HT2C [3] (setting [9]) turned out to be 7%.
On to `O=c1cc(CCc2ccccc2O)oc2cccc(O)c12` [Compound 22b, 5-hydroxy-2-(2-hydroxyphenethyl)-4H-chromen-4-one], for which the inhibition at 10 µM on 5-HT2B receptor [2] (setting [6]) came to 12.8%; at 5-HT2A (setting [8]), 24.3%; on 5-HT2C [3] (setting [9]), 23.8%.
Consider `O=c1cc(CCc2cccc(O)c2)oc2cccc(O)c12` [Compound 22c, 5-Hydroxy-2-(3′-hydroxy-2-phenylethyl)chromone], for which the “pKi at 5-HT2B” value on 5-HT2B receptor [1] is reported as 5.9. At 5-HT2B receptor [1] (Table 7), this compound showed a Ki of 1290 nM. Also, the inhibition at 10 µM at 5-HT2B receptor [2] (setting [6]) was 76.3%; at 5-HT2B receptor [2] (setting [7]), 76%; at 5-HT2A (setting [8]), 39%; at 5-HT2C [3] (setting [9]) it was 30.4%.
On to `O=c1cc(CCc2cccs2)oc2cccc(O)c12` [Compound 22e, 5-hydroxy-2-(2-(thiophen-2-yl)ethyl)-4H-chromen-4-one], for which the results for the Ki on 5-HT2B receptor [1] and on 5-HT2B receptor [1] (Table 7) were 1260 nM and 1050 nM, respectively. For the same compound, the inhibition at 10 µM at 5-HT2B receptor [2] (read-out: % Inhibition 5-HT2B) was determined as 74.8%; on 5-HT2B receptor [2] (setting [6]) it was 74.8%; at 5-HT2A (read-out: % Inhibition 5-HT2A) it was 1.4%; on 5-HT2A (setting [8]), 1.4%; at 5-HT2C [3] (read-out: % Inhibition 5-HT2C), 19.6%; on 5-HT2C [3] (setting [9]), 19.6%.
Turning to `O=c1cc(CCc2ccco2)oc2cccc(O)c12` [Compound 22f, 5-Hydroxy-2-(2-(furan-2-yl)ethyl)chromone], the negative-log Ki (pKi) at 5-HT2B on 5-HT2B receptor [1] is 5.7. In addition, affinity at 5-HT2B receptor [1] (Table 7) was put at a Ki of 1820 nM. Besides, the inhibition at 10 µM was determined as 68.8% on 5-HT2B receptor [2] (setting [6]), 12.4% at 5-HT2A (setting [8]) and 24.2% on 5-HT2C [3] (setting [9]).
`O=c1cc(Cc2ccccc2)oc2cccc(O)c12` [Compound 22g, 2-benzyl-5-hydroxy-4H-chromen-4-one]: the inhibition at 10 µM on 5-HT2B receptor [2] (read-out: % Inhibition 5-HT2B) was determined as 30.6%; at 5-HT2B receptor [2] (setting [6]), 30.6%; on 5-HT2A (read-out: % Inhibition 5-HT2A), 1.4%; on 5-HT2A (setting [8]), 1.4%; at 5-HT2C [3] (read-out: % Inhibition 5-HT2C) it was 24.8%; on 5-HT2C [3] (setting [9]), 24.8%.
Consider `O=c1cc(CCCc2ccccc2)oc2cccc(O)c12` [Compound 22h, 5-hydroxy-2-(3-phenylpropyl)-4H-chromen-4-one], for which the negative-log Ki (pKi) at 5-HT2B at 5-HT2B receptor [1] was determined as 6.6. Further, at 5-HT2B receptor [1] (Table 7), the inhibition constant (Ki) was 240 nM. In addition, the inhibition at 10 µM on 5-HT2B receptor [2] (read-out: % Inhibition 5-HT2B) amounted to 70.4%; on 5-HT2B receptor [2] (setting [6]), 70.4%; on 5-HT2A (read-out: % Inhibition 5-HT2A) it was 5.4%; at 5-HT2A (setting [8]), 5.4%; at 5-HT2C [3] (read-out: % Inhibition 5-HT2C) it was 7.9%; on 5-HT2C [3] (setting [9]), 7.9%. In addition, the antagonist activity on 5-HT2B receptor [4] (challenged with an EC50 dose (1.6 nM) of 5-HT) worked out at 20.5±0.5 % inhibition. Further, the agonist activity at 5-HT2B receptor [4] (compared to 5-HT) is 0.23±0.2 % of the maximal response.
Turning to `O=c1cc(CCCCc2ccccc2)oc2cccc(O)c12` [Compound 22i, 5-hydroxy-2-(4-phenylbutyl)-4H-chromen-4-one], the inhibition at 10 µM was 45.2% on 5-HT2B receptor [2] (read-out: % Inhibition 5-HT2B); 45.2% at 5-HT2B receptor [2] (setting [6]); 5.7% on 5-HT2A (read-out: % Inhibition 5-HT2A); 5.7% on 5-HT2A (setting [8]); 14.7% at 5-HT2C [3] (read-out: % Inhibition 5-HT2C); 14.7% on 5-HT2C [3] (setting [9]).
Consider `O=c1cc(COCc2ccccc2)oc2cccc(O)c12` [Compound 22j, 5-hydroxy-2-((benzyloxy)methyl)chromone], for which, on 5-HT2B receptor [1] (Table 7), the negative logarithm of the Ki (pKi) at 5-HT2B is 5.8 ± 0.05. Further, the “fold decrease in 5-HT2B affinity compared to 5-HPPC (22h)” value at 5-HT2B receptor [1] (relative to 5-HPPC) amounted to 6 fold. Besides, the inhibition at 10 µM at 5-HT2B receptor [2] (setting [6]) was 77.7%; on 5-HT2B receptor [2] (setting [7]), 78%; on 5-HT2A (setting [8]) it was 3.2%; at 5-HT2C [3] (setting [9]), 42.1%.
On to `O=c1cc(CCc2ccccc2)oc2cc(O)ccc12` [Compound 22k, 7-hydroxy-2-phenethyl-4H-chromen-4-one], for which the results for the inhibition at 10 µM on 5-HT2B receptor [2] (setting [6]), on 5-HT2A (setting [8]) and on 5-HT2C [3] (setting [9]) were 34.2%, 35.5% and 33.7%, respectively.
With `O=c1cc(CC(O)c2ccccc2)oc2cc(O)ccc12` (stereo not drawn) [Compound 22l, 7-Hydroxy-2-(2′-hydroxy-2-phenylethyl)chromone], the inhibition at 10 µM on 5-HT2B receptor [2] (setting [6]) was determined as 16.6%; on 5-HT2A (setting [8]), 47.9%; on 5-HT2C [3] (setting [9]), 44%.
As for `O=c1cc(CCc2cccc(O)c2)oc2cc(O)ccc12` [Compound 22m, 7-Hydroxy-2-(3′-hydroxy-2-phenylethyl)chromone], the inhibition at 10 µM at 5-HT2B receptor [2] (setting [6]) came out at 25.3%; on 5-HT2A (setting [8]) it was 23.2%; on 5-HT2C [3] (setting [9]), 0%.
`O=c1cc(CCc2ccc(O)cc2)oc2cc(O)ccc12` [Compound 22n, 7-Hydroxy-2-(4′-hydroxy-2-phenylethyl)chromone]: the values for the Ki on 5-HT2C [5] and on 5-HT2C [5] (Table 7) were 2510 nM and 2450 nM, respectively. For the same compound, the inhibition at 10 µM at 5-HT2B receptor [2] (setting [6]) worked out at 40.8%; on 5-HT2A (setting [8]), 33.3%; on 5-HT2C [3] (setting [9]), 53.1%; on 5-HT2C [3] (read-out: inhibitory activity at 5-HT2C), 53%.
`O=c1cc(COc2ccc3ccccc3c2)oc2cccc(O)c12` [Compound 22o, 5-hydroxy-2-((naphthalen-2-yloxy)methyl)chromone]: the inhibition at 10 µM was 2.9% at 5-HT2B receptor [2] (setting [6]), -3% on 5-HT2A (setting [8]) and -0.7% on 5-HT2C [3] (setting [9]).
For `O=c1cc(COc2cccc3ccccc23)oc2cccc(O)c12` [Compound 22p, 5-hydroxy-2-((naphthalen-1-yloxy)methyl)chromone], the inhibition at 10 µM at 5-HT2B receptor [2] (setting [6]) is 11.8%; on 5-HT2A (setting [8]) it was -1.1%; at 5-HT2C [3] (setting [9]), 0.7%.
For `O=c1cc(Cc2cccc3ccccc23)oc2cccc(O)c12` [Compound 22q, 5-hydroxy-2-(naphthalen-1-ylmethyl)chromone] the same measures were 17.4%, 9.5% and 2.1%.
Turning to `O=c1cc(Cc2cccs2)oc2cccc(O)c12` [Compound 22r, 5-hydroxy-2-(thiophen-2-ylmethyl)-4H-chromen-4-one], the inhibition at 10 µM was 31.5% at 5-HT2B receptor [2] (read-out: % Inhibition 5-HT2B); 31.5% at 5-HT2B receptor [2] (setting [6]); -4.5% at 5-HT2A (read-out: % Inhibition 5-HT2A); -4.5% on 5-HT2A (setting [8]); 23.5% on 5-HT2C [3] (read-out: % Inhibition 5-HT2C); 23.5% on 5-HT2C [3] (setting [9]).
At 5-HT2B receptor [1] (Table 7), `O=c1cc(COCCc2ccccc2)oc2cccc(O)c12` [Compound 22s, 5-hydroxy-2-(phenethoxymethyl)chromone] had an inhibition constant (Ki) of 1260 nM. Besides, the figures for the inhibition at 10 µM at 5-HT2B receptor [2] (setting [6]), at 5-HT2A (setting [8]) and at 5-HT2C [3] (setting [9]) were 77.7%, 0.3% and 11.7%, respectively.

A word on the Ki: it is a dissociation constant, usually derived from enzyme kinetics or from competition with a known ligand. High values mean a looser hold on the target, low ones a stronger hold on the target. One may read the pKi as the negative decadic logarithm of the Ki, by convention in mol/L. Read a high pKi as a low Ki.
